Results from patent US5326774A, “Pharmaceutical preparation of antihypertensive, antianginal, antiarrhythmic and antiglaucomic action” (priority 1992, dated 1994).
“And” between values parts separate entries of the source, which are not always exact repeats. Equal entries are not always repeated. Where two headings read alike, the source gives them in different places.

Assays:
[1] = molecular target: T1, β1-adrenoceptor (Rattus norvegicus, UniProt P18090); assay: Inhibition of isadrin's positive chronotropic effect, i.v., anesthetized rats; format: in vivo; details: rat, iv, read-out: Dosage inhibiting isadrin's positive chronotropism by 50% (ED50)
T1 construct: positive chronotropic and depressor effects in the anesthetized rats; from tissue; host or cells: whole living rat (heart rate response to isadrin); endogenous receptor

[2] = molecular target: T2, β2-adrenoceptor (Rattus norvegicus, UniProt P10608); assay: Inhibition of isadrin's depressor effect, i.v., anesthetized rats; format: in vivo; details: rat, iv, read-out: Dosage inhibiting isadrin's depressor effect by 50%, ED50
T2 construct: positive chronotropic and depressor effects in the anesthetized rats; from tissue; host or cells: whole living rat (blood pressure response to isadrin); endogenous receptor

[3] = test system: strophantin-induced arrhythmia; format: in vivo, guinea pig
[4] = test system: mesaton-initiated pressor effect; assay: Mesaton-initiated pressor effect in anesthetized rats; format: in vivo, rat; details: for effect on mesaton pressor effect: 3 mg/kg i.v.; for suppression of mesaton pressor effect: 10 mg/kg i.v., average
[5] = test system: electrically induced ventricular fibrillation; assay: Threshold of electrically induced ventricular fibrillation in anesthetized cats; format: in vivo, cat
[6] = test system: vascular regions; assay: Labeled microsphere method: cardiac output distribution in normotensive rats; format: in vivo, rat
[7] = test system: vascular regions; assay: Labeled microsphere method in rats with renovascular hypertension; format: in vivo, rat
[8] = test system: arterial pressure; assay: Hypotensive activity in anesthetized cats, i.v.; format: in vivo, cat
[9] = test system: coronary vessels; assay: Coronary vessel dilatation and myocardial perfusion in anesthetized rats; format: in vivo, rat; details: 0.1 mg/kg i.v. (compound of the invention)
Excerpt: The coronarodilative effect of the compound according to the invention is not associated with its β- and α-adrenoceptor blocking activity and its influence on the systemic perfusion pressure and pump function of the heart. […]

[10] = in vivo; details: mouse, iv
Excerpt: LD50 values were estimated by using the Litchfield-Wilckoxon method.

[11] = test system: arterial pressure; assay: Antihypertensive effect in rats with renovascular hypertension; format: in vivo, rat; details: same conditions
Protocol: . In rats suffering from renovascular hypertension the compound of the invention in the dosage of 10 mg/kg (injected intramuscularly) lowered with confidence the arterial pressure (from 137±3 to 117±5 mm of Hg column) 30 minutes after being administered. The 2-week course of the administration of the compound according to the invention (10 mg/kg 1 time a day) caused the antihypertensive effect to be enhanced. By the end of the second week the arterial pressure was 110±8.6 mm Hg. […]

[12] = test system: ventricular fibrillation; assay: Ventricular fibrillation during acute coronary occlusion and reperfusion in anesthetized dogs; format: in vivo, dog; details: for Ventricular fibrillation during acute occlusion and reperfusion: single animals
[13] = test system: intraocular tension of intact rabbit eyes; details: 1% solution
Protocol: The effects of the compound according to the invention on intraocular tension and hydrodynamics of the eye was tested in 28 chinchilla rabbits with body weight of 2.5-3.5 kg.
The left animal eyes were control wherein using the same procedure a diluent was instilled.

[14] = test system: arterial pressure; assay: Arterial pressure and heart rate in conscious normotensive rats, oral; format: in vivo, rat; details: 150 mg/kg
[15] = test system: intraocular tension; assay: Clinical test in 108 patients with glaucoma resistant to conventional therapy; details: human, in vivo
Protocol: The preparation of the invention was tested on 108 patients with different cases of glaucoma resistant to the conventional antiglaucomic therapy. […] A long-term resetting for more than 1 month of intraocular tension was attained in 76% of patients.

[16] = β-adrenoceptor blocking doses, normotensive rats

T1 sequence (P18090 whole entry): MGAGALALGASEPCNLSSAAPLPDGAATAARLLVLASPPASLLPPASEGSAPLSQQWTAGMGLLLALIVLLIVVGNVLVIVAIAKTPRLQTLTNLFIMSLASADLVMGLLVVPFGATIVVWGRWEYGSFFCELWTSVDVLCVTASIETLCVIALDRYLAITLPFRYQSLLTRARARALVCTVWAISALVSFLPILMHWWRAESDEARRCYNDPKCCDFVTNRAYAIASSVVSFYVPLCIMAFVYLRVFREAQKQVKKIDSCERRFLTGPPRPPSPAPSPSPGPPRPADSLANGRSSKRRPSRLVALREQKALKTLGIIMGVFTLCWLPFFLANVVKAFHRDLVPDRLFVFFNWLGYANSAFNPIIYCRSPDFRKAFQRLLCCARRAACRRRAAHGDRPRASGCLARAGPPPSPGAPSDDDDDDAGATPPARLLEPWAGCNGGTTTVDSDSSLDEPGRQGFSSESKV
T2 sequence (P10608 whole entry): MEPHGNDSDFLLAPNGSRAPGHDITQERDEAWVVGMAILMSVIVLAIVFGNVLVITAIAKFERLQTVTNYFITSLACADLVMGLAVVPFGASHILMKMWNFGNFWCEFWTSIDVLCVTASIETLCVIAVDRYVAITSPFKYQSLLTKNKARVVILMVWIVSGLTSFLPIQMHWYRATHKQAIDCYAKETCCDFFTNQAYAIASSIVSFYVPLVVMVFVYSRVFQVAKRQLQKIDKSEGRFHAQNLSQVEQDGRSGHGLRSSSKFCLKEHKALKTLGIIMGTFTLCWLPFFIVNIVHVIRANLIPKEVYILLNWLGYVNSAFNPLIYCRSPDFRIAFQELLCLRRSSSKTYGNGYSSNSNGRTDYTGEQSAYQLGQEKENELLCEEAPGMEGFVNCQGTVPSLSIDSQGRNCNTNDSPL

CC(CCc1ccccc1)NCC(O)c1ccc(O)c(C(N)=O)c1 (stereo not shown) [Labetalol, labetalol]
ED50 [1]: 0.7 ± 0.05 mg/kg | ED50 [2]: 3.3 ± 0.2 mg/kg | Arrhythmogenic dose of strophantin as compared with control: extrasystoles ([3]; 0.3 mg/kg i.v.): 101% | Dose of strophantin as compared with control: ventricular fibrillation ([3]; 0.3 mg/kg i.v.): 113% | Arrhythmogenic dose of strophantin as compared with control: extrasystoles ([3]; 1.0 mg/kg i.v.): 127% | Dose of strophantin as compared with control: ventricular fibrillation ([3]; 1.0 mg/kg i.v.): 131% | Lethal dose of strophantin as compared with control: animal death ([3]; 1.0 mg/kg i.v.): 128% | Arrhythmogenic dose of strophantin as compared with control: extrasystoles ([3]; 3.0 mg/kg i.v.): 136% | Dose of strophantin as compared with control: ventricular fibrillation ([3]; 3.0 mg/kg i.v.): 137% | Lethal dose of strophantin as compared with control: animal death ([3]; 3.0 mg/kg i.v.): 132% | effect on mesaton pressor effect [4]: did not change | suppression of mesaton pressor effect [4]: 47% | threshold of electrically induced ventricular fibrillation ([5]; 1 mg/kg): did not change | threshold of electrically induced ventricular fibrillation ([5]; 5 mg/kg): increased considerably this threshold | value of increasing threshold compared with propranolol and oxprenolol ([5]; 5 mg/kg): higher | nature of vasodilating effect ([6]; dosages to block α-adrenoceptors): slight change of vasodilating nature | most sensible vessels [6, 16]: the vessels of skeletal muscles, testicles, spleen, kidneys and adrenals | vasodilating properties [6, 16]: exhibits vasodilating properties | vasodilating properties [7]: shows vasodilating properties | ED20 ([8]; Felis catus, iv, anesthetized cats, read-out: Dose resulting in lowering of arterial pressure by 20%, ED20): 1 ± 0.09 mg/kg | minimal effective dose ([8]; Felis catus, iv, cats, read-out: dosage from which arterial pressure lowered): 0.1 mg/kg | hypotensive effect compared with compound of the invention ([8]; from 0.1 mg/kg): less pronounced and prolonged effect | coronary vessel dilatation / myocardial perfusion [9]: did not lead to the dilatation of coronary vessels

C=CCOc1ccccc1OCC(O)CNC(C)C (stereo not shown) [Oxprenolol, oxprenolol]
ED50 [1]: 0.26 ± 0.025 mg/kg | ED50 [2]: 0.055 ± 0.005 mg/kg | Arrhythmogenic dose of strophantin as compared with control: extrasystoles ([3]; guinea pig, in vivo): 105% and 120% and 110% | Dose of strophantin as compared with control: ventricular fibrillation ([3]; guinea pig, in vivo): 101% and 110% and 121% | Lethal dose of strophantin as compared with control: animal death ([3]; guinea pig, in vivo): 102% and 112% | effect on mesaton pressor effect [4]: did not change | suppression of mesaton pressor effect [4]: 10% | threshold of electrically induced ventricular fibrillation ([5]; 1 mg/kg): did not change | threshold of electrically induced ventricular fibrillation ([5]; 5 mg/kg): increased considerably this threshold

CC(C)NCC(O)COc1cccc2[nH]ccc12 (stereo not shown) [Pindolol, pindolol, reference compound]
ED50 [1]: 0.025 ± 0.002 mg/kg | ED50 [2]: 0.02 ± 0.002 mg/kg | threshold of electrically induced ventricular fibrillation ([5]; dosages tested): no effect | LD50 at 72 h [10]: 29 mg/kg

CC(C)NCC(O)COc1cccc2ccccc12 (stereo not shown) [Propranolol, propranolol]
Arrhythmogenic dose of strophantin as compared with control: extrasystoles ([3]; guinea pig, in vivo): 92.7% and 110% | Dose of strophantin as compared with control: ventricular fibrillation ([3]; guinea pig, in vivo): 97.9% and 106.3% and 120% | threshold of electrically induced ventricular fibrillation ([5]; 5 mg/kg): increased considerably this threshold | antihypertensive efficacy [11]: low efficacy | prevention of ventricular fibrillation in temporary coronary occlusion ([12]; 1 mg/kg i.v.): the same effect | Ventricular fibrillation during acute occlusion and reperfusion ([12]; 10 min after injection): R | Ventricular fibrillation during acute occlusion and reperfusion ([12]; 60 min after injection): R | Average decrease of intraocular tension OD, M ± m ([13]; 2 hours): 2.6 ± 0.3 ram of Hg column | Average decrease of intraocular tension OD, M ± m ([13]; 4 hours): 2.2 ± 0.2 ram of Hg column | coronary vessel dilatation / myocardial perfusion [9]: unfavourable effect on transmural, myocardial perfusion | arterial pressure [14]: small influence on arterial pressure | heart rate [14]: decreased the heart rate slightly

CC(C)(C)NC[C@H](O)COc1nsnc1N1CCOCC1 [thymolol]
mechanism of ocular hypotensive effect [15]: associated not only with inhibition of intraocular liquid secretion, but with improvement of its outflow
